Where two headings read alike, the source gives them in different places.
Tests used:
[1] = Relative aqueous solubility by stepwise water dilution of DMSO solution; format: physicochemical; conditions: 50 μL DMSO solution of 5 mg mL^−1, water added in 50 μL steps
[2] = cited from earlier work
[3] = biological target: HIV-1 protease (Human immunodeficiency virus type 1 group M subtype B, UniProt P04585); conditions: read-out: IC50 (inhibition of HIV-1 protease), cited from earlier work
[4] = tested on: HIV-1-infected MT-4 cells; conditions: ref [9]; cited from earlier work

Question: Which results are given for `C=C(C)[C@@H]1CC[C@]2(C(=O)O)CC[C@]3(C)[C@H](CC[C@@H]4[C@@]5(C)CC[C@H](O)C(C)(C)[C@@H]5CC[C@]43C)[C@@H]12` [compound 1, 3β-hydroxy-lup-20(29)-en-28-oic acid]?
Answer: Water solubility (dilution steps required to achieve clear solution) [1]: < 2 x; solubility in DMSO ([2]; 25°C, ref [23]): 5 % (w/v); solubility in ethanol ([2]; 25°C, ref [23]): 1 % (w/v); Water solubility ([2]; at 25°C, ref [22]): 0.02 µg/mL; solubility in water ([2]; room temperature, ref [22]): about 0.02 μg mL^−1; IC50 ([3]; ref [18]): 9 µM; IC50 ([3]; ref [19]): 2.5 µM

Question: With `C=C(C)[C@@H]1CC[C@]2(C(=O)O)CC[C@]3(C)[C@H](CC[C@@H]4[C@@]5(C)CC[C@H](OC(=O)CC(C)(C)C(=O)O)C(C)(C)[C@@H]5CC[C@]43C)[C@@H]12` [3-O-(3′,3′-dimethylsuccinyl) betulinic acid] as the compound, how does the “activity against HIV-induced cytopathic effects” value [4] read?
Answer: Its value is “high activity”.

Question: For `C=C(C)[C@@H]1CC[C@]2(C(=O)[O-])CC[C@]3(C)[C@H](CC[C@@H]4[C@@]5(C)CC[C@H](O)C(C)(C)[C@@H]5CC[C@]43C)[C@@H]12.C[N+](C)(C)CCO` [compound 8, cholinium betulinate], which “Water solubility (dilution steps required to achieve clear solution)” value [1] is on record?
Answer: The value was greater than 100x.
